How the values were obtained:
Assay type in all cases: binding
[1] = target: T1, cytochrome P450 2B4 (Oryctolagus cuniculus, UniProt P00178, H226Y); assay: UV-visible competition with benzphetamine
T1 sequence (P00178 28-491 H226Y): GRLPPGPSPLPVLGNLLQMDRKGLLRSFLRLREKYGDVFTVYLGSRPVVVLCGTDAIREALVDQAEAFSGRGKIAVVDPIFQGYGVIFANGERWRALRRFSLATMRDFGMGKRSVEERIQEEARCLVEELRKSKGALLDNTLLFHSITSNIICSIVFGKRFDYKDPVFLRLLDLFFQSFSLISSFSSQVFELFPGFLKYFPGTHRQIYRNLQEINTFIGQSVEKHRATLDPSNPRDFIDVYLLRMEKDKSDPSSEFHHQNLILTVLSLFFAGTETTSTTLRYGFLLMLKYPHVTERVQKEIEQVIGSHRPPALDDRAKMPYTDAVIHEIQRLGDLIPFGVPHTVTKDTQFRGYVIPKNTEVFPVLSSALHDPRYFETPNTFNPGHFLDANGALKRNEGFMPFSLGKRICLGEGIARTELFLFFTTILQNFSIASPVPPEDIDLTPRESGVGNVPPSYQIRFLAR

[2] = target: T1, cytochrome P450 2B4; assay: UV-visible difference spectral titration
[3] = target: T1, cytochrome P450 2B4; assay: UV-visible difference spectral titration; remark: listed apart in the source
[4] = target: T1, cytochrome P450 2B4; assay: UV-visible difference spectral titration; remark: listed apart in the source

Cc1c(N(C)C)c(=O)n(-c2ccccc2)n1C [AP, amidopyrine]
Kd [1]: 2 mM

CNc1c(C)n(C)n(-c2ccccc2)c1=O [DMAP, desmethylamidopyrine]
Kd [2]: 3.2 mM

C[C@@H](Cc1ccccc1)N(C)Cc1ccccc1 [BP, benzphetamine]
Kd [3]: 0.034 mM

Cc1c(N)c(=O)n(-c2ccccc2)n1C [AAP, aminoantipyrine]
Kd [4]: 2.6 mM

— publication PMC3163098 (2011)
